“Also recorded” adds a separate entry of the source.
What was measured:
[1] = test system: pre-miR-21; test: Cellular Chem-CLIP and C-Chem-CLIP to study occupancy of pre-miR-21; assay type: cell-based, human
Experimental: Cellular Chem-CLIP and C-Chem-CLIP to Study Occupancy of pre-miR-2L MDA-MB-231 cells in 100 mm dishes (~90% confluency) were treated with 4 or 5 for 6 h at 37° C. Then the cells were washed with 1×DPBS and cross-linked under 365 nm light for 10 min in ice cold 1×DPBS. The cells were harvested by scraping and pelleted by centrifugation. Total RNA was extracted by using the miRNeasy mini kit (Qiagen) per the manufacturer's protocol. Approximately 50 μg of total RNA was clicked to disulfide biotin azide as described in the “In Vitro Chem-CLIP and Competitive Chem-CLIP (C-Chem-CLIP)” section. Streptavidin beads (10 μL) were added, and the samples were incubated, with shaking, for 2 h at 37° C. The beads were then washed with 1× Wash Buffer (10 mM Tris-HCl, pH 7.0, 4 M NaCl, 1 mM EDTA) three times and then once with nanopure water. Bound RNAs were eluted from the beads by incubating with 200 μL of 1:1 TCEP (200 mM) pre-reduced with 600 mM of K2CO3 for 30 min at 37° C. The reaction was quenched by treatment with an equal volume of 400 mM of iodoacetamide for 30 min at room temperature. The supernatant was collected, and the beads were washed once with nanopure water: the water was added to the eluant. The combined eluant was cleaned up using RNAClean XP beads according to the manufacturer's protocol. The obtained RNA was then subjected to RT-qPCR. Enrichment of pre-miR-21 was calculated as previously described^6. Cellular C-Chem-CLIP was completed by pre-treating with 1 (1 or 5 μM) or 3 (1 or 5 μM) for 6 h, followed by dosing with 4 (5 μM) for 6 h. Sample preparation and data analysis were completed as described above for cellular Chem-CLIP studies.

[2] = test system: all miRNAs expressed in MDA-MB-231 cells; test: Global miRNA profiling in MDA-MB-231 cells; assay type: cell-based, human
Experimental: RNA Isolation and Quantitative Real-Time PCR (RT-qPCR). After treatment, total RNA was extracted and purified by using the Zymo Quick-RNA mini prep kit per the manufacturer's protocol. Reverse Transcription (RT) for mature miRNAs as well as pri- and pre-miR-21 was completed on 200 ng of RNA by using a miScript 11 RT kit (QIAGEN) according to manufacturer's protocol. RT of mRNAs was performed by using QScript kit (Quanta Bio). An Applied Biosystems QS5 384-well PCR system was used to complete qPCR experiments using Power Sybr Green Mater Mix (Life Technologies) as described previously^6.

[3] = test system: FLT3; test: FLT3 degradation Western blot in MDA-MB-231 cells; assay type: cell-based, human
Experimental: In each case, the secondary antibody was diluted two times more than the primary antibody.

[4] = Quantitation of 1 and 2 in mouse plasma and tissue; assay type: in vivo; conditions: male, C57BL/6, mouse, lung, ip, 56 mg/kg; intraperitoneal injection; read-out: drug exposure in the lung
Experimental: Quantitation of 1 and 2 in mouse plasma and tissue. Male C57BL/6 mice (n=3 per dose; 5-7 weeks) were intraperitoneally (i.p.) injected with 1 (24, 49 or 81 mg/kg) or 2 (17, 34 or 56 mg/kg) in a formulation of DMSO/Tween-80/H2O (10/10/80). After 48 h, mice were euthanized, and blood, lung and kidney were collected. Tissues were immediately frozen. Blood was centrifuged to generate plasma and immediately frozen. On the day of analysis, tissues were homogenized, mixed with 5-times volume of acetonitrile, and filtered. Drug levels were determined by mass spectrometry using an ABSciex 5500 mass spectrometer using multiple reaction monitoring.

[5] = test system: wild type (WT) mice (Col4a3+/+); test: Wild type mice, control for Alport studies; assay type: in vivo, mouse
Experimental: Alport Mice Studies. Alport mice (Col4a3^−/−) and wild type (WT) mice (Col4a3^+/+) were obtained from the breeding of heterozygous […]. Urine was collected 1 day before the treatment, considered as Day 1. The treatment started at Day 2, at around 4 weeks of age. Alport mice were treated with vehicle or 2 as described for NOD/SCID mice in the “In Vivo Studies to Assess Metastasis of Breast Cancer to the Lung” section. Urine was collected every other day for analysis of albumin or creatine levels. After 6 weeks of treatment, the mice were euthanized on Day 43. One kidney was frozen in −80° C. for Western blot and RT-qPCR analyses. The other kidney was fixed in formalin for paraffin-embedding sectioning and further staining.
Evaluation of Kidney Function. The concentration of urine albumin was determined by using a Mouse Albumin ELISA Kit (Bethyl Laboratories Inc, E99-134) per the manufacturer's protocol. Urine creatinine level was measured by using a Urinary Creatinine Assay Kit (Fisher Scientific, 50-673-569) per the manufacturer's protocol.
Kidney Tissue Histology. Silver staining, PAS staining, and PPARα staining were performed by Histology Core at Scripps Research Florida. The anti-PPARα (Abcam, ab215270) was used at 1:1000 dilution. FISH imaging of miR-21 and pre-miR-21 were completed as described in “Lung Tissue Histology”.

[6] = target: pre-miR-21's A-bulge (Dicer processing site in pre-miR-21); test: Fluorescent binding affinity measurement, A-bulge RNA; design: species or system human
Experimental: Fluorescent Binding Affinity Measurements. Binding assays were completed as previously described^5. Briefly, the RNA of interest was folded as described in the “Solution-based Dye Displacement Assay” section, including the addition of BSA. Then, 1 was added to the RNA solution to a final concentration of 0.5 μM. The solution was serial diluted with 1× AB2 containing 0.5 μM of 1. The solutions were incubated at room temperature in the dark for 30 min. The solutions were then transferred to a black 384-well plate. Fluorescence intensity was measured using a Tecan plate reader (Gain: 100, Integration time: 40 μs) with excitation wavelength of and emission wavelength of 355 nm and 535 nm, respectively. The change in fluorescence was normalized to samples lacking RNA. Binding affinity was calculated by using Equation 2, as previously described^5. I=I0+0.5Δε{([FL]0+[RNA]0+Kd)−(([FL]0+[RNA]0+Kd)^2−4[FL]0[RNA]0)^0.5} (2) where I and I0 are the measured fluorescence intensity of compound with or without RNA, respectively, Δε is the difference between the fluorescence intensity with infinite concentration of RNA or without RNA, [FL]0 and [RNA]0 are the concentrations of small molecule and RNA, respectively, and Kd is the dissociation constant.

With `C#CCCC1(CCC(=O)NCCN2CCN(c3ccc4[nH]c(-c5c(N)c6c(F)cccc6[nH]c5=O)nc4c3)CC2)N=N1` [Compound 4] the “reaction with / pull-down of pre-miR-21 in cells” value ([1]; MDA-MB-231) was “reacted with pre-miR-21”.

For `CCOC(=O)C1=C(Nc2ccccc2)S/C(=C\c2ccc(OCCOCCOCCOCCNC(=O)NCCN3CCN(c4ccc5[nH]c(-c6c(N)c7c(F)cccc7[nH]c6=O)nc5c4)CC3)c(O)c2)C1=O` [Compound 2, Ribotac-Dovitinib], the “selectivity among all miRNAs” value [2] was “more selective than 1; also recorded: greater selectivity”, the “fold greater concentration than 1 required to compete off degradation by PROTAC 3” value [3] was 100 fold and the “concentration required to compete off the target degradation of PROTAC 3” value ([3]; co-treatment with 3) was 10 µM. For the same compound, the concentration at 48 h [4] was 1000 nM, the “body weight of WT mice” value ([5]; 56 mg/kg q.o.d., 6 weeks) was “gained weight at a similar rate as vehicle-treated mice” and the “PPARα expression in kidneys” value ([5]; WT mice) was “no significant effect”. For the same compound, the “urine albumin normalized to urine creatinine” value ([5]; WT mice, 56 mg/kg q.o.d.) was “no effect”.

For `CN1CCN(c2ccc3nc(-c4c(N)c5c(F)cccc5[nH]c4=O)[nH]c3c2)CC1` [Compound 1, Dovitinib, reference compound], the Kd [6] was 3000 nM and the “competition of pull-down of pre-miR-21 with 4” value ([1]; increasing concentrations, 4 constant) was “similarly diminished”.
